Measured values reported in patent US4071680A, “5'-Deoxy-5-fluoropyrimidine nucleosides” (Hoffmann-La Roche Inc., priority 1976, dated 1978).
Where two headings read alike, the source gives them in different places.

What was measured:
Burkitt's cell cultures = details: Falco and Fox, J. Med. Chem. 11, 148 (1968); cited from earlier work
[1] = tested on: L1210 leukemia cell cultures; details: Falco and Fox, J. Med. Chem. 11, 148 (1968); cited from earlier work
Sarcoma 180 Tumor = format: in vivo, albino mice
Protocol: (§1) All compounds were dissolved in water for administration to animals.
(§2) Small pieces of tumor (20-30mg) were implanted subcutaneously by trocar into the right inguinal region of 18-20 g albino mice. The fragments were obtained from donors bearing firm subcutaneous tumors implanted 7-10 days previously. Treatment was begun on the day of implantation and continued once daily for a total of 8 treatments. The animals were sacrificed 8 days after implantation and the tumors excised and weighed. The ratio of the average weight of the tumors from the untreated control group (C) divided by the average weight of the tumors from the treated group (T) was calculated. The percent inhibition of tumor growth was calculated from the formula:
(§3) % Inhibition = 100 (C-T)/C . The compound was considered to be active at a particular dose if % inhibition ≥ 50%.
(§4) Results obtained from experiments, utilizing compounds of the present invention and representative prior art compounds are summarized below in Table 1.
Effect of Pyrimidine Nucleosides Against Sarcoma 180 Tumor in Mice
(active doses are those which produce ≥50% tumor inhibition)

Yoshida sarcoma = details: Japanese Pat. No. 51-086481; cited from earlier work
Ehrlich Carcinoma = format: in vivo, albino mice
Protocol: as §1, §2, §3
The solid form of this tumor was produced by subcutaneous implantation of 0.5 ml of a 1-10 saline - diluted ascitic tumor cell suspensions derived from 18-20 g albino donor mice implanted 7-10 days previously. Treatment and evaluation procedures were identical to those used for Sarcoma 180.
as §4
Effect of pyrimidine Nucleosides Against Ehrlich Carcinoma in Mice

Compound | Percent Inhibition of tumor growth (Sarcoma 180 Tumor; 100 mg/kg × 8, ip) [%] | Percent Inhibition of tumor growth (Sarcoma 180 Tumor; 200 mg/kg × 8, ip) [%] | Percent Inhibition of tumor growth (Sarcoma 180 Tumor; 200 mg/kg × 8, po) [%] | Percent Inhibition of tumor growth (Sarcoma 180 Tumor; 400 mg/kg × 8, ip) [%] | Percent Inhibition of tumor growth (Sarcoma 180 Tumor; 6.25 mg/kg × 8, po) [%] | Percent Inhibition of tumor growth (Sarcoma 180 Tumor; 12.5 mg/kg × 8, ip) [%] | Percent Inhibition of tumor growth (Sarcoma 180 Tumor; 12.5 mg/kg × 8, po) [%] | Percent Inhibition of tumor growth (Sarcoma 180 Tumor; 25 mg/kg × 8, ip) [%] | Percent Inhibition of tumor growth (Sarcoma 180 Tumor; 25 mg/kg × 8, po) [%] | Percent Inhibition of tumor growth (Sarcoma 180 Tumor; 50 mg/kg × 8, ip) [%] | Percent Inhibition of tumor growth (Sarcoma 180 Tumor; 50 mg/kg × 8, po) [%] | Percent Inhibition of tumor growth (Sarcoma 180 Tumor; 100 mg/kg × 8, po) [%] | Percent Inhibition of tumor growth (Sarcoma 180 Tumor; 400 mg/kg × 8, po) [%] | Percent Inhibition of tumor growth (Ehrlich Carcinoma; 25 mg/kg × 8, ip) [%] | Percent Inhibition of tumor growth (Ehrlich Carcinoma; 25 mg/kg × 8, po) [%] | Percent Inhibition of tumor growth (Ehrlich Carcinoma; 50 mg/kg × 8, ip) [%] | Percent Inhibition of tumor growth (Ehrlich Carcinoma; 50 mg/kg × 8, po) [%] | Percent Inhibition of tumor growth (Ehrlich Carcinoma; 100 mg/kg × 8, ip) [%] | Percent Inhibition of tumor growth (Ehrlich Carcinoma; 100 mg/kg × 8, po) [%] | Percent Inhibition of tumor growth (Ehrlich Carcinoma; 200 mg/kg × 8, ip) [%] | other results
C[C@H]1O[C@@H](n2ccc(N)nc2=O)[C@@H](O)[C@@H]1O [1-(5'-deoxy-β-D-arabinofuranosyl) cytosine] | – | – | – | – | – | – | – | – | – | – | – | – | – | – | – | – | – | – | – | – | activity against Burkitt's cell cultures (Burkitt's cell cultures): inactive; activity against L1210 leukemia cell cultures [1]: inactive
C[C@H]1O[C@@H](n2cc(F)c(=O)[nH]c2=O)C[C@@H]1O [2',5'-Dideoxy-5-Fluorouridine, reference compound] | 37 | 68 | 34 | 81 | – | – | – | – | – | – | – | – | – | – | – | – | – | – | – | – | inhibition of growth of Yoshida sarcoma (Yoshida sarcoma): inhibiting the growth of Yoshida sarcoma
C[C@H]1O[C@@H](n2cc(F)c(N)nc2=O)[C@H](O)[C@@H]1O [5'-Deoxy-5-Fluorocytidine] | 86 | 93 | 82 | 95 | 26 | 37 | 62 | 64 | 76 | 72 | 65 | 76 | 92 | 45 | 37 | 57 | 58 | 65 | 71 | 72 | Percent Inhibition of tumor growth (Ehrlich Carcinoma; 200 mg/kg × 8, po): 80%; Percent Inhibition of tumor growth (Ehrlich Carcinoma; 400 mg/kg × 8, ip): 91%; Percent Inhibition of tumor growth (Ehrlich Carcinoma; 400 mg/kg × 8, po): 95%; Percent Inhibition of tumor growth (Ehrlich Carcinoma; 800 mg/kg × 8, po): 99%
C[C@H]1O[C@@H](n2cc(F)c(=O)[nH]c2=O)[C@H](O)[C@@H]1O [5'-Deoxy-5-Fluorouridine] | 88 | 88 | 90 | – | 68 | 43 | 73 | 67 | 75 | 89 | 80 | 83 | 90 | 43 | 27 | 59 | 56 | 71 | 70 | 86 | Percent Inhibition of tumor growth (Sarcoma 180 Tumor; 1.56 mg/kg × 8, po): 30%; Percent Inhibition of tumor growth (Sarcoma 180 Tumor; 3.12 mg/kg × 8, po): 51%; Percent Inhibition of tumor growth (Ehrlich Carcinoma; 200 mg/kg × 8, po): 90%; Percent Inhibition of tumor growth (Ehrlich Carcinoma; 400 mg/kg × 8, ip): 98%; Percent Inhibition of tumor growth (Ehrlich Carcinoma; 400 mg/kg × 8, po): 98%; Percent Inhibition of tumor growth (Ehrlich Carcinoma; 800 mg/kg × 8, po): 99%
C[C@H]1O[C@@H](n2ccc(=O)[nH]c2=O)[C@H](O)[C@@H]1O [5'-Deoxyuridine, reference compound] | 41 | 9 | – | – | – | – | – | – | – | – | – | – | – | – | – | – | – | – | – | – | –
